The results in this text go back to PMC5293596 (Chemical research in toxicology, 2016).

In series [1] the target is T1, P450 2A13 (Homo sapiens, UniProt Q16696).
T1 sequence (Q16696 1-494): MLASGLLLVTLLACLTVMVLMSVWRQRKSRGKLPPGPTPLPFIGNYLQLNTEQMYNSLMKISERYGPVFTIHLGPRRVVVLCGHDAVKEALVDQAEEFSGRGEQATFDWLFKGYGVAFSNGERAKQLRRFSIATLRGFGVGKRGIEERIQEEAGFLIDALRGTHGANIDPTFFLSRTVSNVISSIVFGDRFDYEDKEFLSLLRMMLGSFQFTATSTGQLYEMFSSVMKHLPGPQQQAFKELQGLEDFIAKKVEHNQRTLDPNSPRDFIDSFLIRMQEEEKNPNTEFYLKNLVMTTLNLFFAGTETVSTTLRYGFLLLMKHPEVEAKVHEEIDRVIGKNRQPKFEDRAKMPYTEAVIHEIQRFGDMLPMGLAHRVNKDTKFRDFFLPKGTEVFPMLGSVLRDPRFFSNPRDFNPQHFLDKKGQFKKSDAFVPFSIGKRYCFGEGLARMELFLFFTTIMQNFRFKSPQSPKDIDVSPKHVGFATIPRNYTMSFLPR
Nature of the series: Spectral binding titration. As to conditions: P450 2A13.

Series [2] has as its target T2, P450 2A6 (Homo sapiens, UniProt P11509).
T2 sequence (P11509 1-494): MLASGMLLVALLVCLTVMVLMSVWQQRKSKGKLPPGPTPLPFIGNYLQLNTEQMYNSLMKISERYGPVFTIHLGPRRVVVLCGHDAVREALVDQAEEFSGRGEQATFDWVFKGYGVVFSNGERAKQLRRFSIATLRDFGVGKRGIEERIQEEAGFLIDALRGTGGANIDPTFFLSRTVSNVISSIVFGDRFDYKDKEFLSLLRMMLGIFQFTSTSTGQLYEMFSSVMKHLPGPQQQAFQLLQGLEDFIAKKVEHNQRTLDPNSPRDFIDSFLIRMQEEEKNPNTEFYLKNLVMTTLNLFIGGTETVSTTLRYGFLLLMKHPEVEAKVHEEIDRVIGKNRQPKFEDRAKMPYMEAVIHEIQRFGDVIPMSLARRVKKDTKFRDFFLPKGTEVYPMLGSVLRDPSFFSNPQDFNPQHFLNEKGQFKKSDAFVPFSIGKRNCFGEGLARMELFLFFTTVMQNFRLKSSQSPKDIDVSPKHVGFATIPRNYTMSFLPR
Nature of the series: Oxidation by P450 2A6 bicistronic membranes, HPLC. The note with it: product peaks only with NADPH-generating system.

The target in series [3] is T1, P450 2A13. Nature of the series: Oxidation by P450 2A13 bicistronic membranes, HPLC. As to conditions: for metabolism (HPLC): product peaks only with NADPH-generating system; for Formation of oxygenated products on LC-MS analysis: results not shown.
Series [4] concerns P450 2A13. Nature of the series: Spectral binding titration. Also noted: species or system human. The note with it: P450 2A13 vs P450 2A6.
Series [5] has as its target T2, P450 2A6. Nature of the series: Spectral binding titration. The note with it: P450 2A6 1.0 μM, pH 7.4; means and S.E.
For series [6], the target named is T3, P450 1A2 (Homo sapiens, UniProt P05177).
T3 sequence (P05177 1-516): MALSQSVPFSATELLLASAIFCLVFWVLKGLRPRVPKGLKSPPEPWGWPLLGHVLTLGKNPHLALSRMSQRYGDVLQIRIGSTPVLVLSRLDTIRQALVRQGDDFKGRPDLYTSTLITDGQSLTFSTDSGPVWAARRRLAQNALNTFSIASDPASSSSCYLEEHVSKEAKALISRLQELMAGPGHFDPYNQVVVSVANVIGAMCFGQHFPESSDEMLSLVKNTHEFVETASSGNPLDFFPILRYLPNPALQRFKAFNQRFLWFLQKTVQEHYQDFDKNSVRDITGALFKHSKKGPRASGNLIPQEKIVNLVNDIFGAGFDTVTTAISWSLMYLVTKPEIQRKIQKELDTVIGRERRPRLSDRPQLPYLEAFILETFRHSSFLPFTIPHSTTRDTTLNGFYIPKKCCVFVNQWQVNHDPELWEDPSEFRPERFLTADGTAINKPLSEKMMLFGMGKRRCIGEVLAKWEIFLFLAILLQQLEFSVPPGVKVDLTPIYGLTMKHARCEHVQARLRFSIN
Nature of the series: Oxidation by P450 1A2 bicistronic membranes, HPLC. The note with it: Figure 5.

For the next series, the target named is T4, P450 1B1 (1B1.3, L432V) (Homo sapiens, UniProt Q16678, L432V).
T4 sequence (Q16678 1-543 L432V): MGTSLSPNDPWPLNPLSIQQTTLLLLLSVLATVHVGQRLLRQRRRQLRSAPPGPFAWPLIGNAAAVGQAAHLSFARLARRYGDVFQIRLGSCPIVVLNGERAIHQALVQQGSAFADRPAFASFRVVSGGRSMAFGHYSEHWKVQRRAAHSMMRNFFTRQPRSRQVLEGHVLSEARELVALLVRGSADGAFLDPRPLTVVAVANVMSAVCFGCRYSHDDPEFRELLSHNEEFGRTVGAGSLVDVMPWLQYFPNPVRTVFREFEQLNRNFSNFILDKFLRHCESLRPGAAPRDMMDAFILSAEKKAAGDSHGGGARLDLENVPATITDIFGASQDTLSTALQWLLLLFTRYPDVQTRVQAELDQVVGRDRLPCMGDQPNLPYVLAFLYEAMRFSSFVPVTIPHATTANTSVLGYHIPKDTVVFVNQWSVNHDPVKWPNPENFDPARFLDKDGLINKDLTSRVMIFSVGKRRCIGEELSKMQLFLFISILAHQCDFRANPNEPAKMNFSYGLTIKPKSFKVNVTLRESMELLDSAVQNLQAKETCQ
Nature of the series: Oxidation by P450 1B1 bicistronic membranes, HPLC. As to conditions: P450 1B1.3; Figure 5.

For the next series, the target named is T5, P450 1A1 (Homo sapiens, UniProt P04798).
T5 sequence (P04798 1-512): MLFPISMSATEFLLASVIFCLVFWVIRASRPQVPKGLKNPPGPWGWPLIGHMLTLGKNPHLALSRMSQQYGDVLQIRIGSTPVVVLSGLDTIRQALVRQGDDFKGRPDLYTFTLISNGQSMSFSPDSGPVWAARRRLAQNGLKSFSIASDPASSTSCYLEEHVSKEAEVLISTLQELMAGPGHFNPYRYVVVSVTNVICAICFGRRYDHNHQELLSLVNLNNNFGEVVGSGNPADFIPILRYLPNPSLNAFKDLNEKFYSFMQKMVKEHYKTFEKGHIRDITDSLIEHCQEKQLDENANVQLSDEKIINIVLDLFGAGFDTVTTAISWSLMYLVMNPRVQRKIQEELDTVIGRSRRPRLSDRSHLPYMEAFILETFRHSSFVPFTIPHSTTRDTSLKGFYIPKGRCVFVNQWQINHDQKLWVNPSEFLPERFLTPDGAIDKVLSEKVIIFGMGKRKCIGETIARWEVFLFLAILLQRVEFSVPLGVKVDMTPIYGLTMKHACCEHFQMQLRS
Nature of the series: 7-Ethoxyresorufin O-deethylation by P450 1A1.

Series [7] deals with T3, P450 1A2. Nature of the series: 7-Ethoxyresorufin O-deethylation by P450 1A2.
A further series concerns the target T6, P450 1B1 (Homo sapiens, UniProt Q16678, L432V).
T6 sequence (Q16678 1-543 L432V): T4 sequence (Q16678 1-543 L432V)
Nature of the series: 7-Ethoxyresorufin O-deethylation by P450 1B1.

The structures appear in SMILES notation.

Take `c1ccc(-c2ccccc2)cc1` [biphenyl]: the “ΔAmax of Type I binding spectral change” value at P450 2A13 [1] is recorded as 0.045. For the same compound, the “metabolism (HPLC)” value at P450 2A6 [2] and on P450 2A13 [3] was “yes” throughout.

On to `C#Cc1ccc2ccc3ccccc3c2c1` [3EPh, 3-ethynylphenanthrene], for which the “metabolism (HPLC)” value at P450 2A6 [2] is “yes”. At P450 2A13 [3], the “metabolism (HPLC)” value is listed as “yes” and the “Formation of oxygenated products on LC-MS analysis” value is on record as “formation of oxygenated products”.

Consider `CC#Cc1ccc2c(ccc3ccccc32)c1` [2PPh, 2-(1-propynyl)phenanthrene], for which the “metabolism (HPLC)” value on P450 2A6 [2] and at P450 2A13 [3] was “yes” in each case.

With `C#CCOCc1ccccc1-c1ccccc1` [2BMPE, 2-biphenyl methyl propargyl ether], the “metabolism (HPLC)” value on P450 2A13 [3] was “not detected”.

With `C#CCOc1ccc(-c2ccc(OCC#C)cc2)cc1` [44BDPE, 4,4′-biphenyl dipropargyl ether], the “metabolism (HPLC)” value at P450 2A6 [2] and at P450 2A13 [3] was “not detected” in each case.

Regarding `C#CCOCc1ccc(-c2ccccc2)cc1` [4BMPE, 4-biphenyl methyl propargyl ether], the “metabolism (HPLC)” value on P450 2A13 [3] is given as “not detected”.

For `C#CCOc1ccccc1-c1ccccc1` [2BPE, 2-biphenyl propargyl ether], at P450 2A13 [3], the “metabolism (HPLC)” value was “yes”.

Regarding `C#Cc1ccc2ccccc2c1` [2EN, 2-ethynylnaphthalene], in the series on P450 2A13 [4], the “ΔAmax/Ks ratio with P450 2A13 relative to that with P450 2A6” value was “about 10 fold”. The “metabolism (HPLC)” value on P450 2A6 [2] and at P450 2A13 [3] was “yes” throughout.

For `C#CCOc1ccccc1-c1ccccc1OCC#C` [22BDPE, 2,2′-biphenyl dipropagyl ether], the “metabolism (HPLC)” value on P450 2A13 [3] was “not detected”.

Consider `C#Cc1cc2ccccc2c2ccccc12` [9EPh, 9-ethynylphenanthrene], for which the “Type I spectra Ks (spectral dissociation constant)” value at P450 2A6 [5] was “ND (10 μM)”. For the same compound, the “metabolism (HPLC)” value at P450 2A13 [3] is “not detected”.

Take `C#Cc1ccc(-c2ccccc2)cc1` [4EB, 4-ethynylbiphenyl]: the “metabolism (HPLC)” value on P450 2A6 [2] and on P450 2A13 [3] was “not detected” throughout.

Turning to `CCC#Cc1ccc(-c2ccccc2)cc1` [4BuB, 4-butynylbiphenyl], the “metabolism (HPLC)” value on P450 2A13 [3] is “not detected”.

Consider `CC#Cc1ccc2ccc3ccccc3c2c1` [3PPh, 3-(1-propynyl)phenanthrene], for which the “Type I spectra Ks (spectral dissociation constant)” value at P450 2A6 [5] is “ND (10 μM)”. Further, on P450 2A13 [3], the “metabolism (HPLC)” value was “yes”.

Consider `C#CCOc1ccc(-c2ccccc2)cc1` [4BPE, 4-biphenyl propargyl ether], for which the “metabolism (HPLC)” value on P450 2A6 [2] and at P450 2A13 [3] was “yes” each time.

For the compound `C#Cc1ccc2c(ccc3ccccc32)c1` [2EPh, 2-ethynylphenanthrene], the “Oxidation (product formation on HPLC)” value was “oxidized 2EPh at lower levels than P450s 2A13 and 2A6” at P450 1A2 [6]; “oxidized 2EPh at lower levels than P450s 2A13 and 2A6” at P450 1B1 (1B1.3, L432V). Moreover, the “metabolism (HPLC)” value at P450 2A6 [2] and at P450 2A13 [3] was “yes” each time. Further, at P450 2A13 [3], the “Formation of oxygenated products on LC-MS analysis” value is given as “formation of oxygenated products”.

In the case of `CCOc1ccc2nc3ccc(=O)cc-3oc2c1` [7-ethoxyresorufin], the “Catalytic activity, 7-ethoxyresorufin O-deethylation (nmol product formed/min/nmol P450)” value on P450 1A1 was found to be 35 min⁻¹; at P450 1A2 [7], 3.2 min⁻¹; at P450 1B1, 14 min⁻¹.

Consider `CC#Cc1ccc(-c2ccccc2)cc1` [4PB, 4-propynylbiphenyl], for which, at P450 2A13 [3], the “metabolism (HPLC)” value is given as “not detected”.

For the compound `c1ccc2c(c1)ccc1ccccc12` [phenanthrene], the “ΔAmax of Type I binding spectral change” value on P450 2A13 [1] stood at 0.063. In addition, the “metabolism (HPLC)” value on P450 2A6 [2] and on P450 2A13 [3] was “yes” in each case.

As for `CC#Cc1cc2ccccc2c2ccccc12` [9PPh, 9-(1-propynyl)phenanthrene], on P450 2A13 [3], the “metabolism (HPLC)” value is “not detected”.
